For experiment [1], the system named is collagen type I in primary human dermal fibroblasts (HDFn). As to the kind of experiment: Type I collagen synthesis on human dermal fibroblasts by ELISA. The settings on record: 0.5 µg/ml, HDFn; for % Collagen induction: 48 hours, versus non-treated cells, mean of 5 assays. Type of experiment: cell-based. The source says:
In vitro study of type I collagen synthesis on human dermal fibroblasts by Enzyme-Linked Immunosorbent Assay.
Collagen type I is the principal collagen of skin. This molecule, which is mainly produced by fibroblasts, is responsible for the strength and resiliency of this tissue. For this reason, in vitro quantification of collagen induction by cosmetic products on human dermal fibroblasts provides information about their potential anti-aging effects on the skin. Collagen induction by the peptides of the invention is evaluated with an Enzyme-Linked Immunosorbent Assay (ELISA). The aim of this study is to investigate the ability of a product to induce collagen type I synthesis in primary human dermal fibroblasts isolated from neonatal skin (HDFn).
HDFn (Cascade) are seeded at a density of 5×10^4 in 48-well plates. After 24-hour incubation, fresh medium with scalar dilutions of the test items at 0.5 µg/ml are added. Non-treated cells are used as basal control. The cells are treated for 48 hours. Then, the medium of the wells is collected and transferred into a 96-well plate. A standard calibration curve prepared with calf skin type I collagen (Sigma) is transferred into the plate as well. The plate is left overnight in order to coat type I collagen into its surface. After that, collagen I is detected with an anti-collagen type I antibody (Sigma). The primary antibody is then recognized by a secondary antibody IgG-HRP (molecular probes). 3,3,5,5-tetramethylbenzidine liquid substrate (TMB, Sigma) is added to measure the amount of secondary antibody attached. The color produced by this reaction is measured in a microtiter plate reader (Clariostar™, BMG) and type I collagen concentration is determined using a linear regression of the standard curve.
(An ELISA detects its analyte on a solid surface through an enzyme-linked reagent.)

Experiment [2] has as its system human subcutaneous pre-adipocytes. Description: Lipid accumulation in coculture of young and old human subcutaneous pre-adipocytes (Adipored staining). The class given is cell-based. The settings on record: 0.01 mg/ml; for %LA (percentage of lipid accumulation): 12 days, coculture of donor cells, respect to coculture control = 100. An excerpt:
In vitro effect of PEP-22 and PEP-23 in lipid accumulation in human subcutaneous pre-adipocytes.
Measurement of lipid accumulation in a coculture of young and old adipose cells indirectly evaluates the inhibition of SASP. A pool of old adipose cells has a higher number of senescent cells. When cocultured with young cells, lipid accumulation observed is below the theoretically expected levels due to a senescence induction effect of SASP from old to young adipocytes.
Induction of lipid accumulation by the peptides of the invention is evaluated by lipid fluorescent staining with Adipored® Assay Reagent. The aim of this study is to investigate the capacity of peptide candidates to induce lipid accumulation in human subcutaneous adipocytes, and therefore prevent adipocytes senescence.
Human subcutaneous pre-adipocytes (donors, Cell applications) cells are cocultured in 96-well plates at a density of 4×10^3 cells/well each age in Human Preadipocyte Growth Medium (Sigma). Monoculture of each age are seeded at a density of 8×10^3 cells/well as age lipid accumulation controls. After 24 hours incubation, differentiation of pre-adipocytes into adipocytes is induced by changing medium to fresh Human Preadipocyte Differentiation Medium (Promocell). At the same time, cocultured cells are treated with 0.01 mg/ml of peptides of the invention. Non-treated cocultured cells are used as basal control and monocultured young and old cells as age lipid accumulation controls. After 12 days of treatment and differentiation, cells are stained with Adipored® Assay Reagent (Lonza) following the manufacturer’s instructions. In brief, the plate is washed with Phosphate Buffer Saline (Sigma) and then Adipored® reagent and Hoechst 33342 (Life technologies) are added and incubated for 15 minutes at 37° C. Finally, fluorescence intensity and nuclei number are measured by Operetta (Perkin Elmer). Fluorescence is normalized by cell nuclei and results are represented respect to cocultured basal control. Abbreviations: % LA = Percentage of lipid accumulation; CC = Coculture control; YC = young control; OC = old control.

Regarding “Ac-L-Arg-L-Arg-L-Gln-D-Met-L-Glu-L-Glu-NH2 [PEP-23]”, in experiment [1], the “% Collagen induction” value amounted to 114.6% and the “Efficacy in increasing collagen type I compared with Argireline (in words)” value is “even higher”. Moreover, in experiment [2], the “Lipid accumulation in adipocytes compared to coculture basal control (in words)” value is given as “increase lipid accumulation” and the “%LA (percentage of lipid accumulation)” value is listed as 159.9%.
As to “Ac-L-Arg-L-Arg-D-Gln-L-Met-L-Glu-L-Glu-NH2 [PEP-22]”, the “% Collagen induction” value in experiment [1] turned out to be 106.0%. In experiment [2], the “Lipid accumulation in adipocytes compared to coculture basal control (in words)” value is recorded as “increase lipid accumulation” and the “%LA (percentage of lipid accumulation)” value is given as 133.9%.
